According to patent publication US9623262B2, “Methods and systems for determining the distribution of radiation dose and response” (priority 2013, dated 2017):

Experiments:
V79 cells [1] = assay: Clonogenic survival assay after single-agent treatment
Protocol: The surviving fraction SF of cells exposed to the agent was assessed with a clonogenic survival assay and plotted as a function of several different variables including extracellular concentration, <I>net, absorbed dose (Gy), and mean cellular activity (mBq/cell). […] Analogous to the cellular activity and absorbed dose required to achieve 37% survival, a37 and D37, the net mean lethal fluorescence intensity of the drug required to achieve 37% survival, <I>net,37, can be defined similarly and obtained from plots of SF versus <I>net.
A is the intracellular activity of ^210Po-citrate, absorbed dose to the cell nucleus, or drug concentration. Least squares fits of the survival data to this function were performed. The variable b is a fitted parameter.
Cells grown in 225-cm^2 flasks were trypsinized (0.25% trypsin, Gibco, catalog no. 25200-056), and MEMB was added to obtain 2×10^6 cells/mL. Aliquots of 1 mL were placed in Falcon 17×100 mm polypropylene tubes (BD, catalog no. 352018) and placed on a rocker-roller (Thermo Fisher, Fair Lawn, N.J.) for 3 hours at 37° C. with 5% CO2 and 95% air. After this conditioning period, cells were treated with drug or radiochemical. Cell cultures were exposed to radiochemical and drugs for 0.5 and 2.5 h, respectively.
One milliliter of MEMB containing ^210Po-citrate was added to the 1 mL of conditioned V79 cultures (2×10^6 cells/mL), to arrive at a concentration of 0-250 kBq/mL (pH 6.9-7.0). After incubating for 30 min, the cells were washed 2× with MEMB, resuspended in 2 mL of MEMB, and incubated on a rocker-roller for 2.5 h to simulate concomitant drug exposure. The cells were resuspended in a 5 mL of MEMB, passed 5× through a needle, and counted with a Beckman Coulter Model Z2 (Brea, Calif.). Aliquots (500 μL) of the cell suspension were transferred to vials, mixed with 5 mL Ecolume (MP Biomedical, Solon, Ohio, catalog no. 882470), and counted with a Beckman Coulter LS6500, and the mean activity per cell was determined (efficiency, 50% as per prior studies). Aliquots of about 5×10^5 cells were counted in triplicate for ^210Po activity and the cpm ranged from 10^3-10^5. The triplicate measurements kept statistical variations to a minimum. Each sample was serially diluted and plated in Falcon 60×15 mm tissue culture dishes for colony formation. Cultures were incubated for 7 days, and the colonies were fixed in 95% ethanol, stained with 0.01% Amido Black, washed in tap-water, air-dried, and counted.
After conditioning, the cell cultures were treated with daunomycin (Sigma, catalog no. D8809) or doxorubicin (Sigma, catalog no. 44583) to a final concentration of 0-10 μmol/L in MEMB. The tubes were returned to the rocker-roller for 2.5 h. The cells were then processed for colony formation as described above.

V79 cells [2] = assay: Clonogenic survival after combined treatment with 210Po-citrate and drug (cocktails); type: cell-based, Chinese hamster; details: for dose dependence of the enhancement of α-particle radiotoxicity: 0.63 μM daunomycin or 2.50 μM doxorubicin with graded 210Po-citrate; for effect of drug on radiotoxicity of 210Po-citrate: concomitant treatment, survival corrected for drug toxicity
Source text: To evaluate cytotoxicity of combined treatment of V79 cells with ^210Po-citrate and daunomycin, or ^210Po-citrate and doxorubicin, the surviving fraction of clonogens was plotted as a function of mean cellular uptake of ^210Po (FIG. 9) and as a function of mean absorbed dose to the cell nucleus. When cells were only treated with ^210Po-citrate, the survival curve can be described by a 1-component exponential function. When cells were concomitantly treated with a single drug concentration and varying amounts of ^210Po-citrate, the dose-response curves followed a 2-component exponential function. The data corresponding to the combined treatments were then corrected for drug toxicity, by dividing the surviving fraction for each datum point by the surviving fraction for drug alone (SF=0.10), and replotted in FIG. 9. Both of the corrected cell survival curves emerged below those obtained for ^210Po-citrate alone.

Compound | cellular uptake of 210Po at the mean lethal dose (V79 cells [1]; 37% survival) [mBq/cell] | atoms of 210Po per cell at the mean lethal dose (V79 cells [1]; corresponds to 0.21 mBq/cell) | dose dependence of the enhancement of α-particle radiotoxicity (V79 cells [2]) | effect of drug on radiotoxicity of 210Po-citrate (V79 cells [2]) | relative cytotoxicity based on extracellular drug concentration (V79 cells [1]; V79 cell cultures) | lethality of daunomycin relative to doxorubicin (V79 cells [1]; low extracellular concentrations, V79 cells) [×]
^210Po-citrate | 0.21 | about 3600 atoms |  |  |  | 
COc1cccc2c1C(=O)c1c(O)c3c(c(O)c1C2=O)C[C@@](O)(C(C)=O)C[C@@H]3O[C@H]1C[C@H](N)[C@H](O)[C@H](C)O1 [daunomycin] |  |  | independent of radiation absorbed dose beyond about 0.5 Gy | enhance the radiotoxicity of α-particles | more cytotoxic than doxorubicin | ~5
COc1cccc2c1C(=O)c1c(O)c3c(c(O)c1C2=O)C[C@@](O)(C(=O)CO)C[C@@H]3O[C@H]1C[C@H](N)[C@H](O)[C@H](C)O1 [doxorubicin] |  |  | dose-dependent increase | enhance the radiotoxicity of α-particles |  | 
